Source: patent US9469674B2 (HAINAN UNIVERSITY, dated 2016)
Several values for one entry are separate records, joined by “and”; a condition that tells them apart may be missing. Equal entries are not always repeated. Entries after “also recorded” stand apart in the source; their conditions may differ. Where two headings read alike, the source gives them in different places. Where no end group is shown, it is not given here.

How the values were obtained:
α3β2 nAChR = α3β2 nAChR (Rattus norvegicus, UniProt P04757+P12390); test: cell-based; format: cell-based
α6/α3β4 nAChR = α6/α3β4 nAChR (Rattus norvegicus, UniProt P04757+P12392+P43143); test: cell-based; format: cell-based
α3β4 nAChR = α3β4 nAChR (Rattus norvegicus, UniProt P04757+P12392); test: cell-based; format: cell-based
α6/α3β2β3 nAChR = α6/α3β2β3 nAChR (Rattus norvegicus, UniProt P04757+P12390+P43143); test: cell-based; format: cell-based
α7 nAChR = α7 nAChR (Rattus norvegicus, UniProt Q05941); test: cell-based; format: cell-based
Sequence of α7 nAChR (Q05941 23-502 limits assumed): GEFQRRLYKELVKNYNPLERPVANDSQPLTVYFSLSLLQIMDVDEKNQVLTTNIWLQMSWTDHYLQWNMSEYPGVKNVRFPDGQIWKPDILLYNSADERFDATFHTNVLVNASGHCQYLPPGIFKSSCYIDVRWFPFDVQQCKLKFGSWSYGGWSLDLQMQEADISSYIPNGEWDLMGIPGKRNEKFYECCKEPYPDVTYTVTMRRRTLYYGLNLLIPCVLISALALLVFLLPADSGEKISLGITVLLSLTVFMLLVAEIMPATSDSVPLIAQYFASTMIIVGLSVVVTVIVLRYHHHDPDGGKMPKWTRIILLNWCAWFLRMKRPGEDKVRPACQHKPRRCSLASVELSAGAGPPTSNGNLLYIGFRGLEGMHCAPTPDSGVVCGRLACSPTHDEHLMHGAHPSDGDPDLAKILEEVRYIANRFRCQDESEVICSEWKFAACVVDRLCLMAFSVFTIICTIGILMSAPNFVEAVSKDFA

α9α10 nAChR = α9α10 nAChR (Rattus norvegicus, UniProt P43144+Q9JLB5); test: cell-based
α2β2 nAChR = α2β2 nAChR (Rattus norvegicus, UniProt P12389+P12390); test: cell-based; format: cell-based
α4β2 nAChR = α4β2 nAChR (Rattus norvegicus, UniProt P09483+P12390); test: cell-based
α4β4 nAChR = α4β4 nAChR (Rattus norvegicus, UniProt P09483+P12392); test: cell-based; format: cell-based
human α3β2 nAChR [1] = biological target: human α3β2 nAChR (Homo sapiens, UniProt P17787+P32297); format: cell-based
human α6/α3β2β3 nAChR = human α6/α3β2β3 nAChR (Homo sapiens, UniProt P17787+P32297+Q15825); test: cell-based; format: cell-based
α3β2[F119Q] nAChR mutant = α3β2[F119Q] nAChR mutant (Rattus norvegicus, UniProt P04757+P12390, F143Q); format: cell-based
Sequence of α3β2[F119Q] nAChR mutant (P04757 26-499 limits assumed, stated change not applied): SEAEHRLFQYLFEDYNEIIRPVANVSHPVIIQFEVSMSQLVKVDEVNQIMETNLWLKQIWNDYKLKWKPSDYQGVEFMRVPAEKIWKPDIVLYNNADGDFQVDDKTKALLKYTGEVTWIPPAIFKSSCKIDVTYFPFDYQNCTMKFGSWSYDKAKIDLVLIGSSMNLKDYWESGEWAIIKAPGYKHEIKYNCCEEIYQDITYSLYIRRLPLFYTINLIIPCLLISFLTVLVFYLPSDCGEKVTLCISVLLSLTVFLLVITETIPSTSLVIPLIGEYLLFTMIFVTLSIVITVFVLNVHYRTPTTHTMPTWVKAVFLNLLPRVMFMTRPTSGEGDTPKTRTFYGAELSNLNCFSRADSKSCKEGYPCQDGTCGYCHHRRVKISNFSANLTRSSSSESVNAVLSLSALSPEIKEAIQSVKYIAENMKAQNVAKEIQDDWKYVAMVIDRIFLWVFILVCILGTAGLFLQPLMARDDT
Sequence of α3β2[F119Q] nAChR mutant (P12390 25-500 F143Q limits assumed, stated change not applied): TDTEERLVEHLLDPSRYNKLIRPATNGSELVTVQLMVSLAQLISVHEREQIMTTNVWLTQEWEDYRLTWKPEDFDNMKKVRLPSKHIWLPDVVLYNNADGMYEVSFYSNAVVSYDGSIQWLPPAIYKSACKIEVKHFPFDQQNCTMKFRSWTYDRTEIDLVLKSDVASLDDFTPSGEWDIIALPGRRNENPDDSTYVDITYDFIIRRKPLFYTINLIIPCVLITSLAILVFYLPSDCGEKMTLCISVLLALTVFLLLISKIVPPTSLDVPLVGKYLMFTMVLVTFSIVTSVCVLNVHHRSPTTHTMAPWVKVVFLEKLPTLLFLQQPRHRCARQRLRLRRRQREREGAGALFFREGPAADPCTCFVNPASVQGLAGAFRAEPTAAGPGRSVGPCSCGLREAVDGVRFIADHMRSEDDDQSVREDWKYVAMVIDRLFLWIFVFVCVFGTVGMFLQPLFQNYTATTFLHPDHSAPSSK

α3β2[T59K] nAChR mutant = α3β2[T59K] nAChR mutant (Rattus norvegicus, UniProt P04757+P12390, T83K); format: cell-based
Sequence of α3β2[T59K] nAChR mutant (P04757 26-499 limits assumed, stated change not applied): as the sequence (P04757 26-499 limits assumed, stated change not applied) above
Sequence of α3β2[T59K] nAChR mutant (P12390 25-500 T83K limits assumed, stated change not applied): as the sequence (P12390 25-500 F143Q limits assumed, stated change not applied) above, with T59K, Q119F counted along it

α3β2[T59L] nAChR mutant = α3β2[T59L] nAChR mutant (Rattus norvegicus, UniProt P04757+P12390, T83L); format: cell-based
Sequence of α3β2[T59L] nAChR mutant (P04757 26-499 limits assumed, stated change not applied): as the sequence (P04757 26-499 limits assumed, stated change not applied) above
Sequence of α3β2[T59L] nAChR mutant (P12390 25-500 T83L limits assumed, stated change not applied): as the sequence (P12390 25-500 F143Q limits assumed, stated change not applied) above, with T59L, Q119F counted along it

α3β2[Q34A] nAChR mutant = α3β2[Q34A] nAChR mutant (Rattus norvegicus, UniProt P04757+P12390, Q58A); format: cell-based
α3β2[K79A] nAChR mutant = α3β2[K79A] nAChR mutant (Rattus norvegicus, UniProt P04757+P12390, K103A); format: cell-based
α3β2[T59I] nAChR mutant = α3β2[T59I] nAChR mutant (Rattus norvegicus, UniProt P04757+P12390, T83I); format: cell-based
α3β2[V111I] nAChR mutant = α3β2[V111I] nAChR mutant (Rattus norvegicus, UniProt P04757+P12390, V135I); format: cell-based
Sequence of α3β2[V111I] nAChR mutant (P04757 26-499 limits assumed, stated change not applied): as the sequence (P04757 26-499 limits assumed, stated change not applied) above
Sequence of α3β2[V111I] nAChR mutant (P12390 25-500 V135I limits assumed, stated change not applied): as the sequence (P12390 25-500 F143Q limits assumed, stated change not applied) above, with V111I, Q119F counted along it

[2] = test system: Chronic Constriction Injury model of ischiadic nerve (neuralgia); conditions: rat, in vivo
[3] = test system: hot-plate pain threshold in Kunming mice; conditions: mouse, in vivo
[4] = biological target: α3β4 acetylcholine receptor; conditions: read-out: half-blocking dose IC50; cited from earlier work
[5] = biological target: α3β2 acetylcholine receptor (Homo sapiens, UniProt P17787+P32297); conditions: read-out: half-blocking dose IC50; cited from earlier work
[6] = biological target: α7 acetylcholine receptor (Homo sapiens, UniProt P36544); conditions: read-out: half-blocking dose IC50; cited from earlier work
Sequence of α7 acetylcholine receptor (P36544 23-502 limits assumed): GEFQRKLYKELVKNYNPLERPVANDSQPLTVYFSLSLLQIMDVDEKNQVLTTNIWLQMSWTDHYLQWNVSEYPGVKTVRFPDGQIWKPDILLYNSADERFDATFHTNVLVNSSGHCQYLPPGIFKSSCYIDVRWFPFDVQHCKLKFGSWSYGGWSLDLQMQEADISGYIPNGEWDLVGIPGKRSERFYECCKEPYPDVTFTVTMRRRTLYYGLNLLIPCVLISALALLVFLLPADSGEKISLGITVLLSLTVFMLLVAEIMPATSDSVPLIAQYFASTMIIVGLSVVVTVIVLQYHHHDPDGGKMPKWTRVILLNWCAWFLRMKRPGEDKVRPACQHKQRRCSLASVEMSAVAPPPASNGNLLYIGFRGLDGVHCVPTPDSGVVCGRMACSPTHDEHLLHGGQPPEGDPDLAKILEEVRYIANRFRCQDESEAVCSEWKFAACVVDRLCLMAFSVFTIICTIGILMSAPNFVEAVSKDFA

α7/5HT3 chimera = conditions: read-out: half-blocking dose IC50; cited from earlier work
[7] = biological target: α9α10 acetylcholine receptor (Homo sapiens, UniProt Q9GZZ6+Q9UGM1); conditions: read-out: half-blocking dose IC50; cited from earlier work
[8] = biological target: α4β2 acetylcholine receptor (Homo sapiens, UniProt P17787+P43681); conditions: read-out: half-blocking dose IC50; cited from earlier work
[9] = biological target: α6/α3β2β3 acetylcholine receptor; conditions: read-out: half-blocking dose IC50; cited from earlier work
[10] = biological target: α6/α3β4 acetylcholine receptor; conditions: read-out: half-blocking dose IC50; cited from earlier work
[11] = biological target: α4β4 acetylcholine receptor (Homo sapiens, UniProt P30926+P43681); conditions: read-out: half-blocking dose IC50; cited from earlier work
[12] = biological target: α2β4 acetylcholine receptor (Homo sapiens, UniProt P30926+Q15822); conditions: read-out: half-blocking dose IC50; cited from earlier work
rat α2β4 nAChR = rat α2β4 nAChR (rat, UniProt P12389); test: cell-based or functional assay
rat α9α10 nAChR = rat α9α10 nAChR (rat, UniProt P43144); test: cell-based or functional assay
rat α2β2 nAChR = rat α2β2 nAChR (rat, UniProt P12389); test: cell-based or functional assay
rat α4β2 nAChR = rat α4β2 nAChR (rat, UniProt P09483); test: cell-based or functional assay
rat α4β4 nAChR = rat α4β4 nAChR (rat, UniProt P09483); test: cell-based or functional assay
human α3β2 nAChR [13] = biological target: human α3β2 nAChR (human, UniProt P32297); test: cell-based or functional assay
rat α7 nAChR = rat α7 nAChR (rat, UniProt Q05941); test: cell-based or functional assay
[14] = read-out: IC50 (half-blocking dose)

CC[C@H](C)[C@@H]1NC(=O)[C@H](CCC(=O)O)NC(=O)[C@@H]2CCCN2C(=O)[C@H](Cc2cnc[nH]2)NC(=O)[C@H](CC(=O)O)NC(=O)[C@H](C(C)C)NC(=O)[C@H](CC(N)=O)NC(=O)[C@@H]2CSSC[C@H](NC(=O)CN)C(=O)N[C@@H](CSSC[C@@H](C(N)=O)NC1=O)C(=O)N[C@@H](CO)C(=O)N[C@@H](Cc1cnc[nH]1)C(=O)N1CCC[C@H]1C(=O)N[C@@H](C)C(=O)N2 [LvIA/LvD21]
% of recovered current within elution time (α3β2 nAChR): 100% | Hill slope of dose-response curve (α3β2 nAChR): 1.17 (0.88-1.46) | Hill slope of dose-response curves (α3β2 nAChR): 1.17(0.79-1.54) | blocking activity to α3β2 times higher than to α6/α3β2β3 (α3β2 nAChR): ~100 times | blocking of ACh-gated current (α3β2 nAChR): specifically blocks; also recorded: completely blocks | current blocked (α3β2 nAChR): about 50% | time to complete elution after block (α3β2 nAChR): ≤ 2 min | Hill slope of dose-response curve (α6/α3β4 nAChR): 0.94 (0.66-1.22) | Hill slope of dose-response curve (α3β4 nAChR): 1.14 (0.72-1.55) | Hill slope of dose-response curve (α6/α3β2β3 nAChR): 0.60(0.48-0.72) | Hill slope of dose-response curve (α7 nAChR): 0.65 (0.43-0.87) | IC50 (α9α10 nAChR): > 10000 nM | IC50 (α9α10 nAChR; [14]): > 10000 nM | IC50 (α2β2 nAChR): > 10000 nM | blocking of ACh-gated current (α2β2 nAChR): totally does not block; also recorded: no blocking activity | IC50 (α2β2 nAChR; [14]): > 10000 nM | IC50 (α4β2 nAChR): > 10000 nM | IC50 (α4β2 nAChR; [14]): > 10000 nM | IC50 (α4β4 nAChR): > 10000 nM | IC50 (α4β4 nAChR; [14]): > 10000 nM | Hill slope of dose-response curve (human α3β2 nAChR [1]): 0.81 (0.44-1.18) | blocking activity to α3β2 times higher than to α6/α3β2β3 (human α3β2 nAChR [1]): ~305 times | Hill slope of dose-response curve (human α6/α3β2β3 nAChR): 0.85 (0.55-1.15) | IC50 (human α6/α3β2β3 nAChR): 5340 nM | Elution time after blocking (α3β2[F119Q] nAChR mutant): 12 min and 10 to 12 min | Hill slope of dose-response curves (α3β2[F119Q] nAChR mutant): 1.12(0.79-1.44) | blocking activity times higher than that to wild type α3β2 nAChR (α3β2[F119Q] nAChR mutant): 25 times | current blocked (α3β2[F119Q] nAChR mutant): blocked all current | Elution time after blocking (α3β2[T59K] nAChR mutant): 20 min | Hill slope of dose-response curves (α3β2[T59K] nAChR mutant): 0.80(0.47-1.13) | blocking activity times higher than that to wild type α3β2 nAChR (α3β2[T59K] nAChR mutant): 15 times | current blocked (α3β2[T59K] nAChR mutant): blocked all current | Elution time after blocking (α3β2[T59L] nAChR mutant): 5 to 8 min | Hill slope of dose-response curves (α3β2[T59L] nAChR mutant): 1.07(0.77-1.37) | blocking activity times higher than that to wild type α3β2 nAChR (α3β2[T59L] nAChR mutant): 7 times | Elution time after blocking (α3β2[Q34A] nAChR mutant): 2 to 3 min | Hill slope of dose-response curves (α3β2[Q34A] nAChR mutant): 0.90(0.22-1.58) | Elution time after blocking (α3β2[K79A] nAChR mutant): 1 min | Hill slope of dose-response curves (α3β2[K79A] nAChR mutant): 0.86(0.43-1.30) | Elution time after blocking (α3β2[T59I] nAChR mutant): 2 min | Hill slope of dose-response curves (α3β2[T59I] nAChR mutant): 1.15(0.43-1.86) | Elution time after blocking (α3β2[V111I] nAChR mutant): 1 min | Hill slope of dose-response curves (α3β2[V111I] nAChR mutant): 1.31(0.66-1.96) | current blocked (α3β2[V111I] nAChR mutant): does not block at all; also recorded: totally did not block | analgesic effect on neuralgia [2]: potent analgesic effects | analgesic effect times higher than that of morphine, same weight and dose [2]: 823-1176 times | average analgesic value (Mechanical Threshold, % of basal) [2]: 160% | mechanical threshold after withdrawal [2]: significantly higher than that of morphine group | analgesic value ([2]; ip): far higher than morphine | analgesic value in some cases (Mechanical Threshold, % of basal) ([2]; ip): up to 200% | average analgesic value (Mechanical Threshold, % of basal) ([2]; ip): up to 200% | analgesic effect times higher than that of morphine, same weight and dosage [3]: 764-882 times | pain threshold [3]: 30 s | pain threshold in comparison with the pain threshold of morphine [3]: 1.3-1.5 times and 1.3 times

GCCSDPRCAWR----C* [ImI]
IC50 [4]: 3390 nM | IC50 [5]: 41 nM | IC50 [6]: 595 nM | IC50 (α7/5HT3 chimera): 217 nM | IC50 [7]: 2000 nM

GCCSHPACAGNNQHIC* [GIC]
IC50 [4]: 755 nM | IC50 [5]: 1.1 nM | IC50 [8]: 309 nM

GCCSTPPCAVLY---C* [BuIA]
IC50 [4]: 27.7 nM | IC50 [9]: 0.26 to 0.46 nM | IC50 [10]: 1.54 to 2.1 nM | IC50 [5]: 5.72 nM | IC50 [11]: 69.9 nM | IC50 [12]: 121 nM | IC50 [6]: 272 nM

B1: α-conotoxin LvIA/LvD21 (peptide)
peptide: GCCSHPACNVDHPEIC
modifications: not fully specified; ends and bridges not checked
IC50 (half-blocking dose) on ACh-gated current (rat α2β4 nAChR): 15500 nM | IC50 (half-blocking dose) on ACh-gated current (rat α9α10 nAChR): > 10000 nM | IC50 (half-blocking dose) on ACh-gated current (rat α2β2 nAChR): > 10000 nM | IC50 (half-blocking dose) on ACh-gated current (rat α4β2 nAChR): > 10000 nM | IC50 (half-blocking dose) on ACh-gated current (rat α4β4 nAChR): > 10000 nM | IC50 (half-blocking dose) on ACh-gated current (human α3β2 nAChR [13]): 17.5 nM | IC50 (half-blocking dose) on ACh-gated current (rat α7 nAChR): 3000 nM
